Non-standard residues stand in square brackets, D forms with d. Primed or numbered codes have the meaning given here. No end group written: not given here. *: point of attachment. FITC = O=C1OC2(c3ccc(O)cc3Oc3cc(O)ccc32)c2ccc(NC(=S)*)cc21; PEG4′ = not defined here; PEG5′ = not defined here; Ahx = NCCCCCC(=O)O A value given as a limit tells only on which side of the number the result lay.

Data on five compounds can be found in US12472226B2, “Cell-permeable peptide” (priority 2019, dated 2025).

The test system of one assay is HT-1080 cells tumor. Description: Delivery test on anticancer agent in tumor-bearing mice. Type of assay: in vivo, BALB/c nude mouse. As for the experimental part: HT-1080 cells (1×10^7 cells/200 μL) were subcutaneously implanted into the back of 5 week-old BALB/c nude mouse (CHARLES RIVER LABORATORIES JAPAN, INC.). A tumor after the implantation was confirmed to reach 30 to 60 mm^3, and then they were subjected to the following tests.
Example 2 was dissolved in the sterile water and adjusted to be 200 μg/200 μL by the addition of 2-time concentrated α-MEM (not containing glutamine or an antibiotic). It was intraperitoneally administered to tumor-bearing mice at 10 mg/kg every 3 days. In the control administration group, 200 μL of 1-time concentrated α-MEM was intraperitoneally administered to tumor-bearing mice every 3 days. The mice were weighed on DRETEC weighing scale (DRETEC CO., Ltd., Japan) and the tumor size (estimation volume (shortest diameter×longer diameter×height×pi/6 mm^3)) was measured with a vernier caliper (maximum: 150 mm, minimum: 0.05 mm) (MITUTOYO, Japan) every 3 days.
Example 3 and Comparative Example 4 (Dox) were treated to be at 5 or 1.2 mg/kg, respectively in the same manner as that of Example 2, and administered to the tumor-bearing mice. The tumor size was measured by the same procedure as above.
FIG. 7 is a graph illustrating transitions of tumor size in the control (N=2), Comparative Example 4(N=2) and Example 3 administration group (N=2). The vertical axis represents the average value of tumor size±standard deviation (SD) and the horizontal axis represents the days after administration. […] The tumor size day 24 grew to about 2,000 mm^3 in the control and Comparative Example 4 administration group. […] That is, the tumors largely shrank due to not only anticancer effect of the peptide itself but also the effect of the anticancer agent. The peptides of the present invention specifically act on the target cells compared with the single administration of the anticancer agent and have high toxicity against the cancer cells.

Assay [1] concerns HT-1080 cells. In words: Test of inducing cell-death in vitro (Calcein-AM/PI dead cell rate). In kind it is cell-based, human. The note with it: 9th day. The text has this: Human fibrosarcoma-derived HT-1080 cells (HT-1080 cells, JCRB cell bank) were used as cancer cells in the test for monitoring changes in mitochondrial membrane potential. HT-1080 cells, human osteosarcoma cell line Hos cells (Hos cells, JCRB cell bank), human histiocytic lymphoma/macrophage U937 cells (U937 cells, JCRB cell bank), human myeloid leukemia HL-60 cells (HL-60 cells, JCRB cell bank), acute monocytic leukemia THP-1 cells (THP-1 cells, JCRB cell bank), human alveolar basal epithelial adenocarcinoma cell A549 cells (A549 cells, Cell Resource Center for Biomedical Research, Institute of Development, Aging and Cancer, Tohoku University), human pancreatic carcinoma cells (MIA Paca 2 cells, Cell Resource Center for Biomedical Research, Institute of Development, Aging and Cancer, Tohoku University) and well differentiated human liver carcinoma-derived cell line HuH7 cells (HuH7 cells, Cell Resource Center for Biomedical Research, Institute of Development, Aging and Cancer, Tohoku University) were used as cancer cells in an in vitro cell-death induction test of cancer cells and a nuclear transport test of Example 2. Normal human gingival fibroblast cells Gin-1 (Gin-1 cells, DS Pharma Biomedical) were used as a control. The above-described cells were each inoculated into a 96-well culture plate (Falcon) at 5,000 cells/[…] and subjected to the following tests.
The peptide of SEQ ID NO: 1 labeled with FITC (Example 2) was used for the test of inducing cell-death in vitro in cancer cells. It was prepared the test example to which 100 μL of Example 2 and further 10% FBS were added and cultured for 9 days under conditions of 200 μL of serum-supplemented medium (Alpha modification of Eagle's MEM (α-MEM) (Thermo Fisher Scientific)+10% FBS). Furthermore, it was also produced the test example that was cultured for 21 days with the whole amount of Example 2-supplemented medium replaced every 7 days. As a control, the cells were cultured in a serum-supplemented medium (α-MEM+10% FBS) without addition and were used. A supernatant was removed after the completion of the culture. The cells were washed once with PBS and stained in PBS to which a fluorescent dye for living cell staining Calcein-AM (DOJINDO LABORATORIES) (final concentration: 0.1 μg/mL) and a fluorescent dye for dead cell staining Propidium Iodide (PI) (DOJINDO LABORATORIES) (final concentration: 0.3 μg/mL) were added, at 37° C. in a 5% CO2 cell incubator for 30 minutes. The living cells and dead cells were separately stained with Calcein-AM and PI, respectively and imaged with the confocal laser scanning microscope LSM800. Next, the dead cell rate relative to the number of total cells was analyzed using ImageJ.
The results are represented by the average value of the dead cell rate (the number red cells stained with IP/the number of total cells×100(%))±standard deviation (SD). In FIG. 2A, the vertical axis represents the rate of cell death when each cell was cultured with Example 2 (50 μg/mL) for 9 days and the horizontal axis represents various types of cells. The increase in the dead cell rate of the Gin-1 cells was not observed.
The concentrations of Examples 2 and 4 to 6 were adjusted to 12.5, 25, 50 and 100 μg/mL, respectively and then administrated to the HT-1080 cells for 9 days tested by the same method as in Test Example 2A. The cell staining and subsequent analyses of the dead cell rate relative to the number of total cells were performed in the same manner as Test Example 2A.

The subject of assay [2] is HT-1080 cells. Description: Test of monitoring changes in mitochondrial membrane potential (JC-1 apoptosis rate). In kind it is cell-based, human. The note with it: 7 days, Example 1 at 25, 50 and 100 μg/mL, Comparative Examples at 50 and 100 μg/mL. As for the experimental part: (§1) Human fibrosarcoma-derived HT-1080 cells (HT-1080 cells, JCRB cell bank) were used as cancer cells in the test for monitoring changes in mitochondrial membrane potential. […]
(§2) The synthetic peptide of Example 1 or Comparative Examples 1 to 3 was individually added to the HT-1080 cells, and the cells were cultured in a serum-supplemented medium (α-MEM+10% FBS). […] Further, the cells were washed once with PBS followed by the addition of 100 μL of PBS, scanned with a confocal laser scanning microscope LSM800 (Zeiss) and then analyzed with ImageJ. […]

The subject of the next assay is Gin-1 cells. Description: Test of monitoring changes in mitochondrial membrane potential (JC-1 apoptosis rate), normal cells. The conditions noted are these: 50 μg/mL. In kind it is cell-based, human. How it is done:
as §1, §2

Turning to `COc1cccc2c1C(=O)c1c(O)c3c(c(O)c1C2=O)C[C@@](O)(C(=O)CO)C[C@@H]3O[C@H]1C[C@H](N)[C@H](O)[C@H](C)O1` [Comparative Example 4, Doxorubicin, reference compound], in the assay with HT-1080 cells tumor (1.2 mg/kg, day 24, N=2), the tumor size result is on record as “about 2,000 mm^3”.

For the compound “Example 3 ({doxorubicin-PEG5′-DBCO‑azide-PEG4′}-KDNRGNLLQCVCTGNGRGEWKC; cysteine pairing not given here)”, in the assay on HT-1080 cells tumor (5 mg/kg, between days 18 and 24, N=2), the “suppression of tumor proliferation compared with the control and Comparative Example 4 administration group” value is listed as “significant difference at the level of 1%”. Besides, the “suppression effect on tumor” value in the assay on HT-1080 cells tumor (5 mg/kg, to the day 24) is on record as “suppression effect was confirmed”.

Regarding “Example 5: peptide of SEQ ID NO: 2 labeled with FITC via an Ahx linker at the N-terminus ({FITC}-[Ahx]KDNRGNLLQCICTGNGRGEWKC; cysteine pairing not given here)”, the dead cell rate in the assay on HT-1080 cells [1] (50 or 100 μg/mL) is given as at least 50%.

Regarding “Example 6: peptide of SEQ ID NO: 6 labeled with FITC via an Ahx linker at the N-terminus ({FITC}-[Ahx]KHGLYNLKQCKMSLNGQRGECWC; cysteine pairing not given here)”, the dead cell rate result in the assay with HT-1080 cells [1] (12.5 μg/mL substantially same as 100 μg/mL) is reported as “about 35%”.

“KDNRGNLLQCVCTGNGRGEWKC (This is derived from a part of CD ligand.; BINDING (3)..(6); BINDING (13)..(17)) [Example 1]”: in the assay with HT-1080 cells [2], the “increase in apoptosis rate (number of green cell dyed with JC1/number of total cells)” value is reported as “increase in apoptosis rate of the HT-1080 cells was confirmed”. Besides, in the assay with Gin-1 cells, the “increase in apoptosis rate” value is “not observed”.
